Results from patent US10174037B2, “Dihydropyrazolopyrimidinone compounds as PDE2 inhibitors” (Merck Sharp & Dohme Corp., priority 2015, dated 2019).
Like-named read-outs stand apart in the source and are kept apart here.

Legend:
other PDE isoforms = settings: reported in Brandon et al. 2007; cited from earlier work
[1] = reported in Brandon et al. 2007; cited from earlier work
Rhesus PDE2A3 = Rhesus PDE2A3 (Macaca mulatta, UniProt B3VTJ2); experiment: PDE2 fluorescence polarization (IMAP FP) assay, rhesus PDE2A3; type: biochemical, rhesus macaque
human PDE2A1 = human PDE2A1 (Homo sapiens (Human), UniProt O00408); experiment: PDE selectivity IMAP FP assay, human PDE2A1; type: biochemical; settings: Human PDE2
Summary of the method: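 IMAP fluorescence polarization assay; PDE2 substrate 50 nM FAM-cAMP containing 1000 nM cGMP, enzyme diluted for 20% substrate conversion, in 10 mM Tris HCl pH 7.2, 10 mM MgCl2, 1 mM DTT. Reaction 60 min at room temperature, stopped with IMAP binding solution; polarization read after 1 h. Ki reported.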

Chain of human PDE2A1 (O00408 other isoform, or with tags, fused parts or gaps): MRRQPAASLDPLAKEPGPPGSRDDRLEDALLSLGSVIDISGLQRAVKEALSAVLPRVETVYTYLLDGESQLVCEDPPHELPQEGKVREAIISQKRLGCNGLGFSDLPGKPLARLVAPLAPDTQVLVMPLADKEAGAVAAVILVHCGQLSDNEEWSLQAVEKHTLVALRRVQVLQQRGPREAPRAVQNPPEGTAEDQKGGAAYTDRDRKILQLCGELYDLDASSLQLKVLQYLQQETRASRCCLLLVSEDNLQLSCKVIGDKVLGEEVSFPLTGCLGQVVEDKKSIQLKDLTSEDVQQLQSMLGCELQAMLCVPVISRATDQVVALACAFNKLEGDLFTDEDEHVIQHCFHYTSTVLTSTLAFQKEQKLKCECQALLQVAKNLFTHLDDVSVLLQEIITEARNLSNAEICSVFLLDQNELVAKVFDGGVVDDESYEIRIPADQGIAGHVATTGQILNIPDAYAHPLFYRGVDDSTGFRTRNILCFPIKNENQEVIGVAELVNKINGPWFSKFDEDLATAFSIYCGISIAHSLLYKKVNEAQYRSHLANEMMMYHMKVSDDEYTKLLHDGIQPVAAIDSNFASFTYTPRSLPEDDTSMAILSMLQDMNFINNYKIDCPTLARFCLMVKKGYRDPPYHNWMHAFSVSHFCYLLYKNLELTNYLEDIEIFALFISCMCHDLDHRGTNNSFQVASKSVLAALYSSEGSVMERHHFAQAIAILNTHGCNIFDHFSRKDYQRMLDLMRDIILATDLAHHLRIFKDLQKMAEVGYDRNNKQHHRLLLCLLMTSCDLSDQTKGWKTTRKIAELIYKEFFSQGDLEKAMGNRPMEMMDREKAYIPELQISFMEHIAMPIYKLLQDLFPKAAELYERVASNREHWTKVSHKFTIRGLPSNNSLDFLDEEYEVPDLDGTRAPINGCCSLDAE
Chain of Rhesus PDE2A3 (B3VTJ2 1-941): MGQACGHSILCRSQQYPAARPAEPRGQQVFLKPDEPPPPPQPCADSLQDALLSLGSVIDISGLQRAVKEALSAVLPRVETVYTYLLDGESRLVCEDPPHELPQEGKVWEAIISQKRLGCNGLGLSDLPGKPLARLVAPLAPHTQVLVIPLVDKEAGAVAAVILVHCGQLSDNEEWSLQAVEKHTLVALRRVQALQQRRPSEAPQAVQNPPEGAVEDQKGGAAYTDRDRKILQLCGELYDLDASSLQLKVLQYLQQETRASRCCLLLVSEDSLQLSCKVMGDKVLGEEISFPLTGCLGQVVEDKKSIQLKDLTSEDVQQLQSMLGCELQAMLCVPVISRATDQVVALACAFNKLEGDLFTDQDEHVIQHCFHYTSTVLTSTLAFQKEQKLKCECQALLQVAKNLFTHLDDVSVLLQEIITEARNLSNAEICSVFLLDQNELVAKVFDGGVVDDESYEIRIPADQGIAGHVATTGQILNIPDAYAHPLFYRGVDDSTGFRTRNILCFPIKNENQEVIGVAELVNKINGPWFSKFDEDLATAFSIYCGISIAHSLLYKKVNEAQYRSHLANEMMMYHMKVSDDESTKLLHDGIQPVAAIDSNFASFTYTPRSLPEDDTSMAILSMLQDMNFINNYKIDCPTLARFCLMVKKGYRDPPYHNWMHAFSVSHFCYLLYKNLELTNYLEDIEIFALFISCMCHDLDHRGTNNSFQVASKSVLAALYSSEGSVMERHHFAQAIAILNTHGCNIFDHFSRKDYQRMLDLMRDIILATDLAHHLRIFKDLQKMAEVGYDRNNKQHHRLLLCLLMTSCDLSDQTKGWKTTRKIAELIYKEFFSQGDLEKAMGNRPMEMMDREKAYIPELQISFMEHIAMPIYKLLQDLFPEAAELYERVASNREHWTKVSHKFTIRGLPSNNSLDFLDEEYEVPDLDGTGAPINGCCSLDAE

Row | SMILES | potency at other PDE isoforms (other PDE isoforms) | brain penetration [1] | Ki (Rhesus PDE2A3; Lab A, read-out: Rhesus PDE2 Ki (nM) Lab A) [nM] | Ki (Rhesus PDE2A3; Lab B, read-out: Rhesus PDE2 Ki (nM) Lab B) [nM] | Ki (human PDE2A1; Lab A, read-out: Human PDE2 Ki (nM) Lab A) [nM] | Ki (human PDE2A1; Lab B, read-out: Human PDE2 Ki (nM) Lab B) [nM]
1 | COc1ccc(Cc2nn3c([C@@H](CCCc4ccccc4)[C@@H](C)O)nc(C)c3c(=O)[nH]2)cc1OC [BAY 60-7550] | significant potency | limited | – | – | – | –
2 | O=c1[nH]c(O)nc2c1c(CF)nn2C(c1ccc(C(F)(F)F)cc1)C1CC1 (stereo not drawn) [Example 39, 1-(Cyclopropyl(4-(trifluoromethyl)phenyl)methyl)-3-(fluoromethyl)-6-hydroxy-1H-pyrazolo[3,4-d]pyrimidin-4(5H)-one] | – | – | 3.6 | 5.5 | 2.2 | 6.3
